Test results from patent US20110172296A1, “MODULATION OF TRANSFORMING GROWTH FACTOR-BETA 1 EXPRESSION” (priority 2010, published 2011).
pIC50: −log10 of the molar value. Values joined by “and” are separate entries in the source; they are usually repeats but may differ in a detail not shown here. Identical values can stand only once. e = 2'-O-(2-methoxyethyl) (MOE); d = 2'-deoxy (DNA)

Experiments:
human TGF-beta1 mRNA [1] = test: Dose-dependent confirmation of antisense inhibition of human TGF-beta1 in HuVEC cells, electroporation (Example 6); format: cell-based
Protocol: The gapmers from Example 5 (see Table 5) were also tested at various doses in HuVEC cells using electroporation as the transfection reagent. Cells were plated at a density of 20,000 cells per well and transfected using electroporation with 0.15625 nM, 0.3125 nM, 0.625 nM, 1.25 nM, 2.5 nM, 5 nM, 10 nM, and 20 nM concentrations of antisense oligonucleotide for 4 hours, as specified in Table 6. After a recovery period of approximately 16 hours, RNA was isolated from the cells and TGF-beta1 mRNA levels were measured by quantitative real-time PCR. TGF-beta1 mRNA levels were adjusted according to total RNA content, as measured by RIBOGREEN®. Results are presented as percent inhibition of TGF-beta1, relative to untreated control cells.

BALB/c mice [2] = test: Tolerability in BALB/c mice: plasma transaminases ALT and AST (Example 7); conditions: for aspartate transaminase levels: plasma
Protocol: (§1) These gapmer oligonucleotides were designed to target human TGF-beta1 and have varying degrees of mismatch with murine TGF-beta1 sequence, as shown in Table 1. Oligo ID Nos. 413982 and 414040 have greater than 3 mismatches to the murine TGF-beta1 sequence. Oligo ID No. 414035 has 2 mismatches to murine TGF-beta1. Oligo ID No. 414036 has no mismatches to murine TGF-beta1.
(§2) BALB/c mice were injected with 25 mg/kg or 50 mg/kg of Oligo ID Nos. 413982, 414035, 414036, or 414040 twice a week for 4 weeks. A control group of mice was injected with phosphate buffered saline (PBS) twice a week for 4 weeks. Plasma transaminase levels were evaluated bi-weekly.
(§3) To evaluate the impact of TGF-beta1 antisense oligonucleotides on the hepatic function of mice described above, plasma concentrations of transaminases were measured using an automated clinical chemistry analyzer (Hitachi Olympus AU400e, Melville, N.Y.).

human TGF-beta1 mRNA [3] = test: Dose-dependent antisense inhibition of human TGF-beta1 in HuVEC cells, Lipofectamine 2000, 0.3292-80 nM, comparison with oligos of U.S. Pat. No. 6,436,909 (Example 4); format: cell-based
Protocol: The dose-dependent antisense inhibition potential of these gapmers was compared with that of Oligo IDs 104992 and 1138498 from U.S. Pat. No. 6,436,909. Cells were plated at a density of 5,000 cells per well and transfected using Lipofectamine™ 2000 reagent with 0.3292 nM, 0.9877 nM, 2.963 nM, 8.8889 nM, 26.6667 nM, and 80 nM concentrations of antisense oligonucleotide for 4 hours, as specified in Table 4. After a recovery period of approximately 16 hours, RNA was isolated from the cells and TGF-beta1 mRNA levels were measured by quantitative real-time PCR. Human TGF-beta1 primer probe set RTS 2980 was used to measure mRNA levels. TGF-beta1 mRNA levels were adjusted according to total RNA content, as measured by RIBOGREEN®. Results are presented as percent inhibition of TGF-beta1, relative to untreated control cells. […] All the antisense oligonucleotides in Table 4 target human TGF-beta1 mRNA (SEQ ID NO: 1).

human TGF-beta1 mRNA [4] = test: Antisense inhibition of human TGF-beta1 mRNA in HuVEC cells, single 10 nM dose, Lipofectamine 2000 (Example 2); format: cell-based
Procedure, shortened: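 HuVEC cells (5,000/well) transfected with 10 nM 2-13-5 MOE gapmer (phosphorothioate, 5-methylcytosine) via Lipofectamine 2000 for 4 h, then recovered ~24 h. mRNA measured by qRT-PCR, normalized to RIBOGREEN total RNA; percent inhibition versus untreated cells.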

BALB/c mice [5] = conditions: mouse, in vivo
Protocol: as §1, §2, §3

human TGF-beta1 mRNA [6] = test: Dose-dependent antisense inhibition of human TGF-beta1 in HuVEC cells, Lipofectamine 2000, 0.9375-30 nM (Example 3); format: cell-based; conditions: Lipofectamine 2000
Protocol: Cells were plated at a density of 5,000 cells per well and transfected using Lipofectamine™ 2000 reagent with 0.9375 nM, 1.875 nM, 3.75 nM, 7.5 nM, 15 nM, and 30 nM concentrations of antisense oligonucleotide for 4 hours, as specified in Table 3. After a recovery period of approximately 16 hours, RNA was isolated from the cells and TGF-beta1 mRNA levels were measured by quantitative real-time PCR. Human TGF-beta1 primer probe set RTS 2980 (forward sequence CTCTCCGACCTGCCACAGA, SEQ ID NO: 160; reverse sequence […], SEQ ID NO: 53; probe sequence CCCTATTCAAGACCACCCACCTTCTGGTX, SEQ ID NO: 161) was used to measure mRNA levels. TGF-beta1 mRNA levels were adjusted according to total RNA content, as measured by RIBOGREEN®. Results are presented as percent inhibition of TGF-beta1, relative to untreated control cells.

human TGF-beta1 mRNA [7] = test: Dose-dependent confirmation of antisense inhibition of human TGF-beta1 in HuVEC cells after large-scale synthesis, Lipofectamine 2000, 0.007-15 nM (Example 5); format: cell-based; conditions: for percent inhibition of TGF-beta1: Lipofectamine 2000
Protocol: Cells were plated at a density of 5,000 cells per well and transfected using Lipofectamine™ 2000 reagent with 0.007 nM, 0.021 nM, 0.062 nM, 0.185 nM, 0.556 nM, 1.667 nM, 5 nM, and 15 nM concentrations of antisense oligonucleotide for 4 hours, as specified in Table 5. After a recovery period of approximately 16 hours, RNA was isolated from the cells and TGF-beta1 mRNA levels were measured by quantitative real-time PCR. Human TGF-beta1 primer probe set RTS 2980 was used to measure mRNA levels. TGF-beta1 mRNA levels were adjusted according to total RNA content, as measured by RIBOGREEN®. Results are presented as percent inhibition of TGF-beta1, relative to untreated control cells.

413982 (antisense GCCTCCGGCTCCCAGCGGCA; sugars from the 5' end e2 d13 e5, backbone and methylation of C not given here) [compound 413982]
percent inhibition of TGF-beta1 mRNA relative to untreated control cells (human TGF-beta1 mRNA [1]; 0.15625 nM oligonucleotide): 26%
percent inhibition of TGF-beta1 mRNA relative to untreated control cells (human TGF-beta1 mRNA [1]; 0.3125 nM oligonucleotide): 32%
percent inhibition of TGF-beta1 mRNA relative to untreated control cells (human TGF-beta1 mRNA [1]; 0.625 nM oligonucleotide): 57%
percent inhibition of TGF-beta1 mRNA relative to untreated control cells (human TGF-beta1 mRNA [1]; 1.25 nM oligonucleotide): 79%
percent inhibition of TGF-beta1 mRNA relative to untreated control cells (human TGF-beta1 mRNA [1]; 2.5 nM oligonucleotide): 85%
percent inhibition of TGF-beta1 mRNA relative to untreated control cells (human TGF-beta1 mRNA [1]; 5.00 nM oligonucleotide): 89%
percent inhibition of TGF-beta1 mRNA relative to untreated control cells (human TGF-beta1 mRNA [1]; 10.00 nM oligonucleotide): 93%
percent inhibition of TGF-beta1 mRNA relative to untreated control cells (human TGF-beta1 mRNA [1]; 20 nM oligonucleotide): 96%
alanine transaminase levels (BALB/c mice [2]; 25 mg/kg twice a week, Week 2): 59 IU/L
alanine transaminase levels (BALB/c mice [2]; 25 mg/kg twice a week, Week 4): 140 IU/L
aspartate transaminase levels (BALB/c mice [2]; 25 mg/kg twice a week, Week 2): 74 IU/L
aspartate transaminase levels (BALB/c mice [2]; 25 mg/kg twice a week, Week 4): 161 IU/L
alanine transaminase levels (BALB/c mice [2]; 50 mg/kg twice a week, Week 2): 77 IU/L
alanine transaminase levels (BALB/c mice [2]; 50 mg/kg twice a week, Week 4): 462 IU/L
aspartate transaminase levels (BALB/c mice [2]; 50 mg/kg twice a week, Week 2): 92 IU/L
aspartate transaminase levels (BALB/c mice [2]; 50 mg/kg twice a week, Week 4): 460 IU/L
increase in ALT/AST (BALB/c mice [2]; 25 or 50 mg/kg twice a week for four weeks): < 16 fold
percent inhibition of TGF-beta1 (human TGF-beta1 mRNA [3]; 0.3292 nM): 76%
percent inhibition of TGF-beta1 (human TGF-beta1 mRNA [3]; 0.9877 nM): 87%
percent inhibition of TGF-beta1 (human TGF-beta1 mRNA [3]; 2.963 nM): 91%
percent inhibition of TGF-beta1 (human TGF-beta1 mRNA [3]; 8.8889 nM): 95%
percent inhibition of TGF-beta1 (human TGF-beta1 mRNA [3]; 26.6667 nM): 95%
percent inhibition of TGF-beta1 (human TGF-beta1 mRNA [3]; 80.0 nM): 93%
% inhibition (human TGF-beta1 mRNA [4]; 10 nM oligonucleotide, HuVEC, relative to untreated control cells, gapmers targeted to SEQ ID NO: 1): 88%
inhibition of a TGF-beta1 mRNA (human TGF-beta1 mRNA [4]; threshold lists of Oligo IDs, 10 nM): 60% and 65% and 70% and 75% and 80% and 85%
tolerability compared to Oligo ID 105204 (BALB/c mice [5]): improved tolerability
percent inhibition of TGF-beta1 (human TGF-beta1 mRNA [6]; 0.9375 nM): 56%
percent inhibition of TGF-beta1 (human TGF-beta1 mRNA [6]; 1.875 nM): 77%
percent inhibition of TGF-beta1 (human TGF-beta1 mRNA [6]; 3.75 nM): 88%
percent inhibition of TGF-beta1 (human TGF-beta1 mRNA [6]; 7.5 nM): 95%
percent inhibition of TGF-beta1 (human TGF-beta1 mRNA [6]; 15 nM): 96%
percent inhibition of TGF-beta1 (human TGF-beta1 mRNA [6]; 30 nM): 97%
percent inhibition of TGF-beta1 (human TGF-beta1 mRNA [7]; 0.007 nM): 0%
percent inhibition of TGF-beta1 (human TGF-beta1 mRNA [7]; 0.021 nM): 14%
percent inhibition of TGF-beta1 (human TGF-beta1 mRNA [7]; 0.062 nM): 31%
percent inhibition of TGF-beta1 (human TGF-beta1 mRNA [7]; 0.185 nM): 56%
percent inhibition of TGF-beta1 (human TGF-beta1 mRNA [7]; 0.556 nM): 71%
percent inhibition of TGF-beta1 (human TGF-beta1 mRNA [7]; 1.667 nM): 79%
percent inhibition of TGF-beta1 (human TGF-beta1 mRNA [7]; 5 nM): 89%
percent inhibition of TGF-beta1 (human TGF-beta1 mRNA [7]; 15 nM): 92%
pIC50 (human TGF-beta1 mRNA [7]; Lipofectamine 2000, Example 5): 9.62
